How the values were obtained:
[1] = Metabolic Stability (H = Human); type: in vitro ADME
[2] = Metabolic Stability (M = Mouse); type: in vitro ADME
GHSR1a [3] = biological target: T1, GHSR1a (Homo sapiens, UniProt Q92847); assay: Calcium FLIPR assay, GHSR-1a antagonism (reduction of ghrelin response); type: cell-based; conditions: HEK293/GHSR1a cells, ghrelin 10 nM
T1 construct: expressed in transfected cells; host or cells: HEK293
Procedure, shortened: (§1)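 Calcium flux measured by FLIPR in GHSR1a-expressing HEK293 cells after 30-60 min dye preloading. Compound was added at t=20 sec, alone for agonism or with ghrelin (10 nM) for antagonism, and fluorescence recorded for 2 minutes. EC50 and IC50 were estimated from dose-response data.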

C57BL/6J mice = assay: Food intake test in mouse (GHSR1a antagonists); type: in vivo
Method: Male C57BL/6J mice, 18-22 g body weight, were fasted overnight (16 h before compound administration) and placed in a regular light dark cycle (6:00-18:00 light/18:00-6:00 dark). After 1 wk acclimation, animals were sorted into two groups (n=6 each, 2 per cage) based on body weight. Animals in group one were be treated with vehicle and animals in group 2 were treated with the test agent (n=6 for each group). The cumulative food intake was evaluated at 1, 2, 4, 8 and 24 hrs after drug or vehicle treatment. Food intake was measured by subtracting uneaten food from the initial premeasured food.

GHSR1a [4] = biological target: T1, GHSR1a; assay: Calcium FLIPR assay, GHSR-1a agonism; type: cell-based; design: Emax: unit not given here; conditions: HEK293/GHSR1a cells
Procedure, shortened: as §1

[5] = Mus musculus, ip, 1 h, i.p. 10 mg/kg

T1 sequence (Q92847 whole entry): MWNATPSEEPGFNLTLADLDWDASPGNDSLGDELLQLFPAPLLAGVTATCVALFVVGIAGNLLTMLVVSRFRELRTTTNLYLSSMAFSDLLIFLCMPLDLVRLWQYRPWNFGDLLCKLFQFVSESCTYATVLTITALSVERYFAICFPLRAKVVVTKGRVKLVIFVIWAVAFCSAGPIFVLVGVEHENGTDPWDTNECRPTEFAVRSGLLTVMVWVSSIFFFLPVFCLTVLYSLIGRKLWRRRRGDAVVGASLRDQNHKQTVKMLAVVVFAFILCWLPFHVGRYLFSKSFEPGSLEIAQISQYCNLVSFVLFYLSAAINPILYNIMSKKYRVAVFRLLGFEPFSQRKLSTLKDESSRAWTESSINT

Compound	Metabolic Stability H [1]	Metabolic Stability M [2]	IC50 (GHSR1a [3])	EC50 (GHSR1a [4])	inhibition in vivo at 10 mg/kg (C57BL/6J mice; [5])	Emax (GHSR1a [4])	other results
CC(NC(=O)N(C)C1CCN(C)CC1)c1ccc(-c2cccnc2)c(Cl)c1Cl (centres unmarked) [Compound H0496, 3-(1-(2,3-dichloro-4-(pyridin-3-yl)phenyl)ethyl)-1-methyl-1-(1-methylpiperidin-4-yl)urea]	Medium	High	10 nM	> 30000 nM	–	–	Mouse Food Intake, result in words (C57BL/6J mice; i.p. 10 mg/kg): NSE (10 mg/kg)
CC(NC(=O)N(C)C1CCN(C)CC1)c1ccc(-c2ccncc2)c(Cl)c1Cl (centres unmarked) [Compound H0497, 3-(1-(2,3-dichloro-4-(pyridin-4-yl)phenyl)ethyl)-1-methyl-1-(1-methylpiperidin-4-yl)urea]	Medium H Medium M	Medium H Medium M	24 nM	> 30000 nM	–	–	Mouse Food Intake, result in words (C57BL/6J mice; i.p. 30 mg/kg): NSE (30 mg/kg)
C#Cc1ccc(C(C)NC(=O)N(C)C2CCN(C)CC2)c(Cl)c1Cl (centres unmarked) [Compound H0603, 3-(1-(2,3-dichloro-4-ethynylphenyl)ethyl)-1-methyl-1-(1-methylpiperidin-4-yl)urea]	High H High M	High H High M	2 nM	> 30000 nM	34%	–	inhibition in vivo at 0.1 mg/kg (C57BL/6J mice; Mus musculus, ip, 1 h, i.p. 0.1 mpk): 71%; inhibition in vivo at 1 mg/kg (C57BL/6J mice; Mus musculus, ip, 1 h, i.p. 1 mpk): 65%; Mouse Food Intake, result in words (C57BL/6J mice; SC, dose not given): SC NSE; Mouse Food Intake inhibition, activity up to (C57BL/6J mice; i.p. 1 mpk): ≤ 24 h
CC(NC(=O)N(C)C1CCN(C)CC1)c1ccc(-c2ncccn2)c(Cl)c1Cl (centres unmarked) [Compound H0619, 3-(1-(2,3-dichloro-4-(pyrimidin-2-yl)phenyl)ethyl)-1-methyl-1-(1-methylpiperidin-4-yl)urea]	High H High M	High H High M	13 nM	39 nM	34%	–	inhibition in vivo at 10 mg/kg (C57BL/6J mice; Mus musculus, ip, 2 h, i.p. 10 mg/kg): 34%
CC(NC(=O)N(C)C1CCN(C)CC1)c1ccc(C2CC2)c(Cl)c1Cl (centres unmarked) [Compound H0494, 3-(1-(2,3-dichloro-4-cyclopropylphenyl)ethyl)-1-methyl-1-(1-methylpiperidin-4-yl)urea]	Medium	High	52 nM	66 nM	–	2996	Mouse Food Intake, result in words (C57BL/6J mice; i.p., dose not given): No Effect
CC(NC(=O)N(C)C1CCN(C)CC1)c1ccc(-c2csc(C3CC3)n2)c(Cl)c1Cl (centres unmarked) [Compound H0841, 3-(1-(2,3-dichloro-4-(2-cyclopropylthiazol-4-yl)phenyl)ethyl)-1-methyl-1-(1-methylpiperidin-4-yl)urea]	–	–	118 nM	> 30000 nM	–	–	Mouse Food Intake, result in words (C57BL/6J mice; PO 10 mg/kg + ANA (ANAM) 30 mg/kg mice): PO 10 mg/kg + ANAM 30 mg/kg mice: NSE
CC(NC(=O)N(C)C1CCN(C)CC1)c1ccc(-c2cccs2)c(Cl)c1Cl (single isomer, unassigned) [Compound H0563, 3-(1-(2,3-dichloro-4-(thiophen-2-yl)phenyl)ethyl)-1-methyl-1-(1-methylpiperidin-4-yl)urea]	Medium H Medium M	Medium H Medium M	–	3 nM	65%	2100	–
CC(NC(=O)N(C)C1CCN(C)CC1)c1ccc(C#CC2CC2)c(Cl)c1Cl (single isomer, unassigned) [Compound H0818, 3-(1-(2,3-dichloro-4-(cyclopropylethynyl)phenyl)ethyl)-1-methyl-1-(1-methylpiperidin-4-yl)urea]	–	–	1.7 nM	3.5 nM	–	1915	inhibition in vivo at 30 mg/kg (C57BL/6J mice; Mus musculus, po, 4 h, 30 mg/kg PO fasted mice): 22%
CN1CCC(N(O)C(=O)NC(CC2CC2)c2ccc(-c3cnccn3)c(Cl)c2Cl)CC1 (single isomer, unassigned) [Compound H0782, 3-(2-cyclopropyl-1-(2,3-dichloro-4-(pyrazin-2-yl)phenyl)ethyl)-1-hydroxy-1-(1-methylpiperidin-4-yl)urea]	–	–	5 nM	6 nM	93%	1923	–
